Data reported in US20190060249A1 (priority 2017, published 2019).

Tests used:
[1] = system: murine WT EpCAM+/CD24+-sorted cells; test: Annexin V assay; type: cell-based, mouse; details: 100 μM Alda-341; Annexin V and propidium iodide, FACS
Description: Annexin V^+PI^+ are interpreted as late apoptotic cells and appear in the upper right quadrant. 5-6 replicates per group.
Cells were dissociated from matrigel, stained with Biolegend's FITC Annexin V Apoptosis Detection Kit with Propidium Iodide ([…]), and analyzed by flow cytometry. Annexin V^+PI^− cells were analyzed as early apoptotic cells and Annexin V^+PI^+ cells were analyzed as late apoptotic cells. Five to six replicates per group were assayed.

ALDH7A1 = biological target: T1, ALDH7A1 (Homo sapiens, UniProt P49419); test: ALDH enzymatic assay, recombinant ALDH7A1; type: biochemical; details: 5 μg/ml recombinant enzyme, 10 mM acetaldehyde, 20 μM Alda-341
T1 sequence (P49419 27-539): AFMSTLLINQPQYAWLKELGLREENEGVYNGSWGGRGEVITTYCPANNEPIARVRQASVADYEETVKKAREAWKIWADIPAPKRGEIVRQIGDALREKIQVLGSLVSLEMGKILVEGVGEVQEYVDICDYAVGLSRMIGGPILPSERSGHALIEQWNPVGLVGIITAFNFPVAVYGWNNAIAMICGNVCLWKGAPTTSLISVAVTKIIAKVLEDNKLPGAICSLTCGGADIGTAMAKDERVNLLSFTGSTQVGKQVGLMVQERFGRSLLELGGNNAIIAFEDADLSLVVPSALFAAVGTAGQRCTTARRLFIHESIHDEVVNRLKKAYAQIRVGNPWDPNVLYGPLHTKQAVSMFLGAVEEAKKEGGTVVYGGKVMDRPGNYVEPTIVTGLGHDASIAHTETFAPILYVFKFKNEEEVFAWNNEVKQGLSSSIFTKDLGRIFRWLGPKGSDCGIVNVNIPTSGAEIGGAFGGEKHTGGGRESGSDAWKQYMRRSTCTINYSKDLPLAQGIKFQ
Description: ALDH enzymatic assay: ALDH1A1, ALDH1A2, 2, 3A1, 3A2, 4A1, 5A1, 7A1 were measured as previously described using 5 μg/ml of recombinant protein (Chen, C. H., Cruz, L. A., and Mochly-Rosen, D. (2015) Pharmacological recruitment of aldehyde dehydrogenase 3A1 (ALDH3A1) to assist ALDH2 in acetaldehyde and ethanol metabolism in vivo. Proceedings of the National Academy of Sciences of the United States of America 112, 3074-3079). […] Assays were conducted in 50 mM NaPPi buffer (pH 7.4) in the presence of 2.5 mM NAD^+ and 10 mM substrate and measured in triplicate at 25° C. Dose response curve fits and EC50's were calculated using GraphPad Prism 7 software.

[2] = system: mouse model of radiation-induced hyposalivation; test: Mouse model of radiation-induced hyposalivation; type: in vivo
Source text: In one experiment, mice were irradiated with a single dose of 15 Gy and in a second experiment with 6 Gy/d for 5 d for a total of 30 Gy. […] Starting 8 weeks after radiation, the control and treatment groups were further segmented into four groups.
On day 5 of the 30 Gy radiation dose, SMG were removed, fixed, and stained for cleaved caspase 3 to determine the extent of apoptosis (FIG. 4E).
Saliva collection: Female C57/BL-6 mice, 8-10 weeks old, were ordered from Jackson Labs. […] 15 Gy single dose or 30 Gy fractionated over 5 d (6 Gy/d) were delivered to the SMG with the rest of the body lead shielded. Stimulated saliva was measured as described in, Lombaert, I. M., Brunsting, J. F., Wierenga, P. K., Faber, H., Stokman, M. A., Kok, T., Visser, W. H., Kampinga, H. H., de Haan, G., and Coppes, R. P. (2008) Rescue of salivary gland function after stem cell transplantation in irradiated glands. PloS one 3, e2063. Mice were anesthetized with a ketamine (80 mg/kg) and xylazine (16 mg/kg) mixture delivered by intraperitoneal injection and subcutaneously injected with 2 mg/kg pilocarpine. Saliva was collected for 15 minutes. Saliva volume was calculated by assuming […] and was normalized to the mouse body weight by dividing the total collected saliva volume by the mass of the mouse (kg).
Periodic acid schiff staining and acinar quantification: SMG were removed from mice, fixed in 10% formalin for 24 h, and paraffin-embedded. 10 images per group were taken at random at 30× magnification using a Leica DM6000 B microscope. Acinar regions were quantified using RT_Image software (Graves, E. E., Quon, A., and Loo, B. W., Jr. (2007) RT_Image: an open-source tool for investigating PET in radiation oncology. Technology in cancer research & treatment 6, 111-121). Images were separated into red, green, and blue color channels, blurred using a 20 pixel box filter, and segmented using an intensity contour of 110 with a minimum area of 100 um^2. Acinar area was calculated as a percentage of acinar area relative to the area of the microscopy field.
Cleaved caspase 3 staining: SMG were removed from mice, fixed in 10% formalin for 24 h, and paraffin-embedded. Sections were stained with Caspase 3 rabbit antibody (Cell Signaling, 9664), 1:200 dilution, and DAPI. Three random images using red and blue filters were taken at 100× magnification with a Leica DM6000 B microscope from each gland (6-8 glands/group) and quantified by counting cleaved caspase-3 positive (red) cells per field.
RNA-sequencing: Samples were extracted using Qiagen miRNeasy Kit (217084). Extracted samples were assessed for quality using Agilent Pico-RNA bio-analyzer chip (5067-1513). The Smarter Ultra Low Input RNA kit (Clontech, 634848) was used to generate cDNA from total RNA. Amplified cDNA was purified using SPRI Ampure Beads from Beckman Coulter, and quality and quantity were measured using a High Sensitivity DNA chip on an Agilent 2100 Bioanalyzer. cDNA was sheared to an average length of 300 BP using a Covaris S2, and libraries were generated following the Clontech Low Input Library Prep kit (634947). Indexed libraries were pooled and quantitated for sequencing. Sequencing data was generated on an Illumina HiSeq 4000. The processed RNAseq reads were imported into BRB-ArrayTools, an integrated package for the visualization and statistical analysis of gene expression data developed by Dr. Richard Simon and BRB-ArrayTools Development Team. The imported expression values were log2-transformed and subjected to quantile normalization by Robust Multi-chip Average (RMA). Genes that show differential expression between those untreated and irradiated (univariate p-value <0.01) were selected. To identify functional networks and pathways enriched in these significant genes, these genes were analyzed using MetaCore™. For heatmap generation the Clustering function of ArrayTools was used, with experimental samples in fixed grouping and order, and genes ordered by hierarchical clustering.

[3] = EpCAM+ cells isolated from SMG 2 weeks after 30 Gy

## C=C(C)[C@H]1CC=C(C)CC1 [Alda-341, D-limonene]
[1]
  fewer early and late apoptotic cells compared to vehicle control: about 60%
ALDH7A1
  catalytic activity of ALDH7A1: did not increase
[2]; 10% Alda-341 in chow from 1 w prior to radiation and continuously after, single 15 Gy or 30 Gy (6 Gy/d for 5 d)
  saliva production after radiation: retained near baseline saliva production levels
[2]; Alda-341 from 24 h after radiation, stopped 8 weeks after radiation
  saliva production, Alda-341 stopped: rapid decline in saliva production
[2]; Alda-341 starting 24 h after the final dose of radiation, continuous, 20 weeks
  saliva levels, continuous Alda-341: sustained significantly higher saliva levels over 20 weeks
[2]; Alda-341 treatment begun 8 weeks after radiation
  saliva production, Alda-341 begun late: did not show significant improvement in saliva production
[2]; [3]
  apoptotic-related gene expression (RNA-sequencing): a decrease in apoptotic-related gene expression
  glutathione metabolism (RNA-sequencing): increased glutathione metabolism
  immune response (RNA-sequencing): decreased immune response
[2]; after 20 weeks, continuous Alda-341
  more acinar cell preservation (PAS staining) vs group that never received Alda-341: ~70%
[2]; continuous Alda-341 after radiation
  improvement in sphere-forming ability of dissociated SMG vs no treatment: ~30 fold
[2]; day 5 of the 30 Gy radiation dose, Alda-341 before radiation
  number of apoptotic cells (cleaved caspase 3 staining): reduced the number of apoptotic cells to near non-irradiated levels
[2]; eight weeks after 30 Gy, Alda-341 from 1 w prior to radiation
  preservation of acinar area: 90%
